Results reported in ChEMBL document CHEMBL1201862, “PubChem BioAssay data set” (2004).
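All cell lines were grown in 96-well plates and treated with compound for 48 hours. GI50: concentration for 50% inhibition of growth.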 Active and inactive are the calls of the source. No stated cut-off is given here; in the data, active = GI50 up to about 1.1 µM and inactive = higher.

Key:
Assay in all cases: DTP human tumour cell line panel, 48 h
COLO 205 = tested on: COLO 205
EKVX = tested on: EKVX
HCT-116 = tested on: HCT-116
HL-60 = tested on: HL-60
HOP-92 = tested on: HOP-92
HT-29 = tested on: HT-29
MOLT-4 = tested on: MOLT-4
Malme-3M = tested on: Malme-3M
NCI-H460 = tested on: NCI-H460
OVCAR-4 = tested on: OVCAR-4
SK-MEL-28 = tested on: SK-MEL-28
SK-MEL-2 = tested on: SK-MEL-2
SK-OV-3 = tested on: SK-OV-3
UACC-257 = tested on: UACC-257
A498 = tested on: A498
RXF 393 = tested on: RXF 393
SW-620 = tested on: SW-620

Measured: GI50

COc1ccc(N2C(=O)c3c(c4[nH]c5ccc(OC)cc5c4c4ccc(C(C)(C)C)cc34)C2=O)cc1
inactive: COLO 205 > 100 µM | EKVX > 100 µM | HCT-116 > 100 µM | HL-60 53.2 µM | HOP-92 > 100 µM | HT-29 > 100 µM | MOLT-4 > 100 µM | Malme-3M > 100 µM | NCI-H460 > 100 µM | OVCAR-4 > 100 µM | SK-MEL-28 > 100 µM | SK-MEL-2 > 100 µM | SK-OV-3 > 100 µM | UACC-257 > 100 µM

COC(=O)NN=C1C(C)(C)C(=NNC(=O)OC)C1(C)C
inactive: A498 > 100 µM | COLO 205 > 41.6 µM | EKVX > 100 µM | HCT-116 > 45.5 µM | HL-60 > 100 µM | HOP-92 > 100 µM | HT-29 > 36.9 µM | MOLT-4 > 100 µM | Malme-3M > 100 µM | NCI-H460 > 100 µM | OVCAR-4 > 100 µM | RXF 393 > 100 µM | SK-MEL-28 > 100 µM | SK-MEL-2 > 100 µM | SK-OV-3 > 100 µM | SW-620 > 100 µM | UACC-257 > 100 µM

CC1(C)CCC[C@@]2(C)C1C[C@H](O)[C@@]1(C)O[C@@](C)([C@H](O)CO)CCC21 (stereo partly specified)
inactive: A498 20.9 µM | COLO 205 25.3 µM | EKVX > 100 µM | HCT-116 33 µM | HL-60 24.9 µM | HOP-92 23.7 µM | HT-29 33 µM | MOLT-4 21.2 µM | Malme-3M 40.6 µM | NCI-H460 40.9 µM | OVCAR-4 35.7 µM | SK-MEL-28 34.6 µM | SK-MEL-2 20.7 µM | SK-OV-3 25.1 µM | SW-620 47 µM | UACC-257 33.5 µM

Clc1ccc(C[P+]2(c3ccccc3)CCCCC2)cc1.[O-][Cl+3]([O-])([O-])[O-]
inactive: A498 > 100 µM | COLO 205 17.9 µM | EKVX > 100 µM | HCT-116 60.1 µM | HL-60 24.4 µM | HT-29 32 µM | MOLT-4 86.5 µM | Malme-3M 58.5 µM | NCI-H460 > 100 µM | RXF 393 > 100 µM | SK-MEL-28 62.8 µM | SK-MEL-2 48.6 µM | SK-OV-3 > 100 µM | SW-620 80 µM | UACC-257 28.2 µM

Cc1cc(S(=O)(=O)O)c(NC(=O)C(=O)C2C=CCS2(=O)=O)cc1Cl (stereo unspecified)
inactive: A498 > 100 µM | COLO 205 > 100 µM | EKVX > 100 µM | HCT-116 > 100 µM | HL-60 > 100 µM | HOP-92 > 100 µM | HT-29 > 100 µM | MOLT-4 > 100 µM | Malme-3M > 100 µM | NCI-H460 > 100 µM | OVCAR-4 > 100 µM | RXF 393 > 100 µM | SK-MEL-28 > 100 µM | SK-MEL-2 > 100 µM | SK-OV-3 > 100 µM | SW-620 > 100 µM | UACC-257 > 100 µM

O=C1c2ccccc2S[C@@H](O)[C@@H]2CCCN12
inactive: COLO 205 > 100 µM | EKVX > 100 µM | HCT-116 > 100 µM | HL-60 > 100 µM | HOP-92 > 100 µM | MOLT-4 > 100 µM | Malme-3M > 100 µM | NCI-H460 > 100 µM | RXF 393 > 100 µM | SK-MEL-28 > 100 µM | SK-MEL-2 > 100 µM | SK-OV-3 35.2 µM | SW-620 > 100 µM | UACC-257 > 100 µM

CC(=O)NC1=C(C)C(=O)c2c(nc3n2CCC3O)C1=O (stereo unspecified)
inactive: A498 > 100 µM | COLO 205 > 100 µM | EKVX 24.7 µM | HCT-116 23.7 µM | HL-60 8.28 µM | HOP-92 18.6 µM | HT-29 > 100 µM | MOLT-4 3.44 µM | Malme-3M 19.1 µM | NCI-H460 > 87.7 µM | OVCAR-4 13.6 µM | RXF 393 21.5 µM | SK-MEL-28 > 76.4 µM | SK-MEL-2 19.5 µM | SK-OV-3 > 61.7 µM | SW-620 44.4 µM | UACC-257 26.3 µM

O=[N+]([O-])c1cc(C2SCc3nc4ccccc4n32)ccc1Cl (stereo unspecified)
inactive: A498 18.1 µM | COLO 205 22.1 µM | EKVX 31.4 µM | HCT-116 17.8 µM | HL-60 16 µM | HOP-92 25.1 µM | HT-29 30.8 µM | MOLT-4 31.3 µM | Malme-3M 34.8 µM | NCI-H460 31.8 µM | RXF 393 25.3 µM | SK-MEL-28 25.9 µM | SK-MEL-2 21.2 µM | SK-OV-3 28.1 µM | SW-620 41 µM | UACC-257 22.3 µM
